Data taken from US20260217712A1, “SOLID STATE FORMS OF MNK INHIBITORS” (4E Therapeutics, Inc., priority 2023, published 2026).
≈ marks a conversion by molar mass, not a printed value. Entries after “also recorded” stand apart in the source; their conditions may differ. Read-outs that look alike come from different tables or passages of the source. Each block holds one compound with its values, some of them ahead of it.

Experiments:
Assay type in all cases: physicochemical
[1] = Static storage at 40° C./75% RH, XRPD and HPLC post storage; details: for stability to storage at 40° C./75% RH (in words): 40° C./75% RH (elevated temperature and humidity); for XRPD post storage at 40° C./75% RH / HPLC purity post storage at 40° C./75% RH: 7 days
Description: Purity analysis was performed on an Agilent HP1100/Infinity II 1260 series system equipped with a diode array detector and using OpenLAB software. The full method details are provided below:
Poorly Crystalline Structure (I) (from Lot A, Free Form Pattern 1, 30 mg) was dissolved in 50 volumes of THF:Water 9:1 at 60° C. in 13 vials, stirring at 500 RPM (small amount of debris present). The solutions were then treated with 1.1 molar equivalents (90/180 μL) of selected counter-ions (Table 7). The resulting solutions were then cooled down to 5° C. at 0.1° C./min and were held at this temperature for 2 days. The suspensions were filtered and dried under suction for 20 min. The gummed sample was left with the cap off to promote crystallization. All solids obtained were initially analyzed by XRPD and stored in glass HPLC vials for subsequent analysis.
Any solids obtained were analyzed by XRPD, ^1H NMR, HPLC, TGA, DSC, XRPD post storage at 40° C./75% RH after 7 days & IC if necessary. Additional microscopy techniques (PLM & HSM) were used to complement the above analysis where appropriate.

[2] = as above; details: 7 days
[3] = Drying / standing under ambient conditions, XRPD; details: for XRPD (Dry): after drying under ambient conditions overnight
Description: Structure (I) (Sample 28-2, 30 mg, Poorly Crystalline Pattern 3) was wetted with solvent (300 μL, 10 vol) according to Table 30 and put into a shaker at 50° C. for 6 days. The suspensions were isolated using filter cartridges and positive pressure. A XRPD pattern was collected for each sample. […] This characterization is presented and discussed in Examples detailed herein. (see, e.g., FIG. 75)

[4] = Thermodynamic solubility in simulated media and buffers; details: 25 °C, thermodynamic from solid
Description: The thermodynamic solubility for Pattern 11 was determined in 3 simulated media and two buffers. […]

[5] = pKa measurements; details: listed as Lot A
[6] = Gravimetric vapor sorption (GVS) and XRPD post-GVS
Description: Sorption isotherms were obtained using a SMS DVS Intrinsic moisture sorption analyzer, controlled by DVS Intrinsic Control software. The sample temperature was maintained at 25° C. by the instrument controls. The humidity was controlled by mixing streams of dry and wet nitrogen, with a total flow rate of 200 mL/min. The relative humidity was measured by a calibrated Rotronic probe (dynamic range of 1.0-100% RH), located near the sample. The weight change, (mass relaxation) of the sample as a function of % RH was constantly monitored by a microbalance (accuracy±0.005 mg).
(§1) Typically, 5-30 mg of sample was placed in a tared mesh stainless steel basket under ambient conditions. The sample was loaded and unloaded at 40% RH and 25° C. (typical room conditions). A moisture sorption isotherm was performed as outlined below (2 scans per complete cycle). The standard isotherm was performed at 25° C. at 10% RH intervals over a 0-90% RH range. Typically, a double cycle (4 scans) was carried out. Data analysis was carried out within Microsoft Excel using the DVS Analysis Suite.
Sorption isotherms were obtained using a Hiden IGASorp moisture sorption analyser, controlled by Isochema HISorp software. The sample temperature was maintained at 25° C. by a Grant LT ecocool 150 re-circulating water bath. The humidity was controlled by mixing streams of dry and wet nitrogen, with a total flow rate of 250 ml·min-1. The relative humidity was measured by a calibrated Vaisala RH probe (dynamic range of 0-95% RH), located near the sample. The weight change, (mass relaxation) of the sample as a function of % RH was constantly monitored by the microbalance (accuracy±0.001 mg).
as §1, with “Typically, 20-30” for “Typically, 5-30”, “scans giving 1” for “scans per”, “within the Isochema HISorp 2019 software and exported into” for “within”, “Excel to present accordingly.” for “Excel using the DVS Analysis Suite.”

[7] = Initial solubility testing in solvents; details: for solubility: organic solvent or mixture, thermodynamic from solid
Description: Structure (I) (20 mg) from Lot A (free form Pattern 1) was charged into HPLC vials, treated with solvent, 10 volumes at a time, until the material fully dissolved or a maximum of 50 volumes had been added. Once 50 volumes was reached without dissolution, the temperature was increased to 50° C. To each suspension, 1.1 molar equiv. (60 μL) of HCl (1M in THF) was added, stirred for 5 min, and slowly cooled to 5° C. at 0.1° C./min and held at that temperature overnight. All solids were then isolated by filtration through PTFE frits and dried under suction for 20 min. The samples were analyzed by XRPD.

[8] = Static storage at 25° C./97% RH, XRPD and HPLC post storage; details: 8 days, listed as Lot A

- XRPD post storage at 40° C./75% RH ([1]; 40° C./75% RH): converted to Pattern 3
- XRPD post storage at 40° C./75% RH ([2]; listed as 27-1): Change in form—Pattern 3
SMILES: Cc1cc(Nc2cc(N)ncn2)c(=O)n2c1C(=O)NC21CCC2(CC2)CC1 [Pattern 4]

- XRPD post storage at 40° C./75% RH ([2]; listed as 30-15): Pattern 3
SMILES: Cc1cc(Nc2cc(N)ncn2)c(=O)n2c1C(=O)NC21CCC2(CC2)CC1 [Pattern 8]
- XRPD (Dry) [3]: unstable to drying under ambient conditions

- solubility thermodynamic ([4]; simulated gastric fluid, SGF (pH 1.4), read-out: Thermodynamic solubility in simulated media, SGF): 0.13 mg/mL (≈ 0.355 mM)
- solubility thermodynamic ([4]; FaSSIF (pH 6.7), read-out: Thermodynamic solubility in simulated media, FaSSIF): 0.006 mg/mL (≈ 0.0164 mM)
- solubility thermodynamic ([4]; FeSSIF (pH 5.1), read-out: Thermodynamic solubility in simulated media, FeSSIF): 0.02 mg/mL (≈ 0.0546 mM)
- acidic pKa (acidic center) [5]: Acidic: 11.49
- basic pKa [5]: Basic: 4.73
- solubility in solvents (in words) ([7]; up to 50 vol, up to 50° C.): insoluble in most solvents
- HPLC after storage at 40° C./75% RH (8 days) ([1]; 40° C./75% RH, 8 days): HPLC-98.2%
- HPLC purity after storage at 25° C./97% RH (8 days) [8]: HPLC-97.5%
SMILES: Cc1cc(Nc2cc(N)ncn2)c(=O)n2c1C(=O)NC21CCC2(CC2)CC1 [Pattern 1]
- GVS mass change expressed as water ([6]; 0-90% RH): ~90% RH, exhibiting a slight hysteresis (ca. 6 mol eq water),
- Post GVS XRPD form ([6]; after double cycle GVS, listed as Lot A): unchanged; also recorded: showed that the solid form remained as poorly crystalline
- hygroscopicity (in words) ([6]; listed as Lot A): highly hygroscopic. XRPD of the sample after the analysis
- XRPD after storage at 40° C./75% RH (8 days) ([1]; 40° C./75% RH, 8 days, listed as Lot A): unchanged; also recorded: XRPD-poorly crystalline Pattern 1 (no change)
- XRPD after storage at 25° C./97% RH (8 days) [8]: XRPD-poorly crystalline Pattern 1 (no change)

- solubility ([7]; 50 °C, 50 vol, 50° C., read-out: solubilization upon heating to 50° C.): < 20 mg/mL
- solubility ([7]; 20 mg in 10 vol of the sample's solvent, read-out: solubilization at 10 vol): < 100 mg/mL
- solubility ([7]; 20 vol of the sample's solvent, read-out: solubilization at 20 vol): < 50 mg/mL
- solubility ([7]; 30 vol of the sample's solvent, read-out: solubilization at 30 vol): < 33.3 mg/mL
- solubility ([7]; 40 vol of the sample's solvent, read-out: solubilization at 40 vol): < 25 mg/mL
- solubility ([7]; 50 vol of the sample's solvent, read-out: solubilization at 50 vol): < 20 mg/mL
SMILES: Cc1cc(Nc2cc(N)ncn2)c(=O)n2c1C(=O)NC21CCC2(CC2)CC1 [Pattern 8-2]

Second part, the compound before the results:

SMILES: Cc1cc(Nc2cc(N)ncn2)c(=O)n2c1C(=O)NC21CCC2(CC2)CC1 [Maleate Pattern 1]
- stability to storage at 40° C./75% RH (in words) ([1]; listed as 9-7): data. Form looks stable
- XRPD post storage at 40° C./75% RH ([1]; 40° C./75% RH): consistent with Maleate Pattern 1
- HPLC purity post storage at 40° C./75% RH ([1]; 40° C./75% RH, listed as 9-7): 98.8% purity. Maleate
- XRPD post storage at 40° C./75% RH ([2]; listed as 9-7): pattern retained; very

SMILES: Cc1cc(Nc2cc(N)ncn2)c(=O)n2c1C(=O)NC21CCC2(CC2)CC1 [Pattern 9]
- XRPD (Dry) [3]: unstable to drying under ambient conditions
- form under ambient conditions (XRPD after ambient overnight) ([3]; ambient conditions): unstable at ambient conditions

SMILES: Cc1cc(Nc2cc(N)ncn2)c(=O)n2c1C(=O)NC21CCC2(CC2)CC1 [Pattern 6]
- XRPD (Dry) ([3]; listed as 30-4): maintained after mild drying; also recorded: Pattern 6
- XRPD post storage at 40° C./75% RH ([2]; listed as 30-4): convert to Pattern 3; also recorded: form-Pattern 3

SMILES: Cc1cc(Nc2cc(N)ncn2)c(=O)n2c1C(=O)NC21CCC2(CC2)CC1 [Pattern 7]
- XRPD (Dry) ([3]; listed as 30-6): Pattern 7
- stability to storage at 40° C./75% RH (in words) ([1]; listed as 30-6): not stable to static storage
- XRPD post storage at 40° C./75% RH ([2]; listed as 30-6): 7 days: Change in form-Pattern 3

SMILES: Cc1cc(Nc2cc(N)ncn2)c(=O)n2c1C(=O)NC21CCC2(CC2)CC1 [Phosphate Pattern 1]
- stability to storage at 40° C./75% RH (in words) [1]: remained stable by XRPD & HPLC
- stability to storage at 40° C./75% RH (in words) ([1]; listed as 9-8): data. Form looks stable
- XRPD post storage at 40° C./75% RH ([1]; 40° C./75% RH): consistent with PHO Pattern 1
- HPLC purity post storage at 40° C./75% RH ([1]; 40° C./75% RH, listed as 9-8): 98.5% purity. Phosphate
- HPLC purity post storage at 40° C./75% RH ([1]; 40° C./75% RH, listed as 22-2): 99.1%
- XRPD post storage at 40° C./75% RH ([2]; listed as 9-8): pattern retained,
- XRPD post storage at 40° C./75% RH ([2]; listed as 22-2): Unchanged

SMILES: Cc1cc(Nc2cc(N)ncn2)c(=O)n2c1C(=O)NC21CCC2(CC2)CC1 [FUM Pattern 1]
- change of chemical purity on storage at 40° C./75% RH (in words) ([1]; 40° C./75% RH): slight uplift
- stability to storage at 40° C./75% RH (in words) [1]: stable to storage
- HPLC purity post storage at 40° C./75% RH ([1]; 40° C./75% RH, listed as 9-10): 98.8%
- XRPD post storage at 40° C./75% RH ([2]; listed as 9-10): Fumarate Pattern 1

SMILES: Cc1cc(Nc2cc(N)ncn2)c(=O)n2c1C(=O)NC21CCC2(CC2)CC1 [amorphous material]
- XRPD post storage at 40° C./75% RH ([1]; 40° C./75% RH): converted to Free Form Pattern 3
- XRPD post storage at 40° C./75% RH ([2]; listed as 28-1): 7 days: Crystallization-Pattern 3 (WD)

SMILES: Cc1cc(Nc2cc(N)ncn2)c(=O)n2c1C(=O)NC21CCC2(CC2)CC1 [MES Pattern 2]
- HPLC purity post storage at 40° C./75% RH ([1]; 40° C./75% RH, listed as 22-6): 99.1%
- change of chemical purity on storage at 40° C./75% RH (in words) ([1]; 40° C./75% RH, listed as 21-1): Notable increase in purity after
- XRPD post storage at 40° C./75% RH ([2]; listed as 21-1): storage, with no observed impact
- XRPD post storage at 40° C./75% RH ([2]; listed as 22-6): Unchanged

SMILES: Cc1cc(Nc2cc(N)ncn2)c(=O)n2c1C(=O)NC21CCC2(CC2)CC1 [Fumarate Pattern 2]
- XRPD post storage at 40° C./75% RH ([1]; 40° C./75% RH): loss of the additional peaks
- HPLC purity post storage at 40° C./75% RH ([1]; 40° C./75% RH, listed as 22-4): 99.2%
- XRPD post storage at 40° C./75% RH ([2]; listed as 22-4): FUM P2 (additional peaks lost),
